Patent US11360010B1, “Methods and device for controlled cell stretch and imaging” (The Regents of the University of Colorado, a body, priority 2019, dated 2022)
Entries after “also recorded” stand apart in the source; their conditions may differ.

Legend:
[1] = test system: mouse embryonic skin fibroblasts (MSFs); assay: Live imaging of nuclear area and chromatin condensation (H2b-eGFP) during cyclic stretch routines; type: cell-based; conditions: for change in nuclear area / chromatin condensation (H2b histogram kurtosis and skewness): BAPTA 50 μM, KN-62 10 μM, cytochalasin D 2 μM
Procedure: (§1) Transgenic mice harboring a fluorescence tag at the H2b histone—B6.Cg-Tg (HIST1H2BB/EGFP) 1 Pa/J, Stock No: 006069—were obtained from Jackson Laboratory (Bar Harbor, Me.). All animal procedures were performed following Institutional Animal Care & Use Committee approval. Skin from embryonic mice was harvested 18.5 days post-conception. Skin was minced, washed with Hank's Balanced Salt Solution (HBSS), and incubated in 35 mm dishes in shallow medium (˜0.5 mL) to avoid floating of the tissue for 4 days, during which fibroblasts extruded from the tissue. After 4 days, remaining tissue was removed (picked out with a pipette), and extruded cells in the dish were detached using TrypLE (Gibco, Gaithersburg, Md.) and expanded in culture for another 2 days before being seeded into stretch chambers for experiments. The inner well of assembled stretch chambers was ozone activated for 30 s via corona arc discharge (BD-20; Electro-Technic Products) and coated with 50 μg/mL bovine plasma fibronectin (F1141; Sigma-Aldrich) in a total volume of 250 μL overnight at 37° C. Mouse embryonic skin fibroblasts (MSFs) were seeded into stretch chambers at a density of 80,000 cells/cm′ 1 day before experiments. MSFs were extruded and cultured in DMEM (ATCC, Manassas, Va.) containing 10% fetal bovine serum (Gibco), 1% penicillin-streptomycin (Gibco), and 25 mM HEPES (Gibco) at 37° C. and 5% CO2. To inhibit calcium signaling, MSFs were incubated with 50 μM BAPTA (A4926; Sigma-Aldrich) or 10 μM KN-62 (12142; Sigma-Aldrich) 1 h before cyclic strain experiments. To disrupt actin polymerization, MSFs were incubated with 2 μM cytochalasin D (C8273; Sigma-Aldrich) 30 min before experiments. Vehicle controls were incubated with 0.001% DMSO (276855; Sigma-Aldrich) 1 h before experiments. To test the use of chromatin dyes, cells were stained with Hoechst (NucBlue Live ReadyProbes; Life Technologies) 30 min before experiments. Stretch experiments were performed at 25° C. (room temperature) under humidified conditions.
The stretch device was mounted on an inverted epi-fluorescence microscope (Ti-Eclipse; Nikon) with a 60× water immersion objective (0.26 μm/pixel) and an EMCCD camera (iXonEM+; Andor Technology). The surrounding of the microscope was humidified to prevent the water on the objective from evaporating during the 1 h experiment. Oil immersion is also possible, but water immersion provided better image quality with the silicone membranes used.
Using MATLAB, a sinusoidal control signal (1 Hz) was sent to the Arduino controller, resulting in a cyclic stretch routine of the membrane (FIG. 1C), with peak strains set to 5% (−0.1 V), 10% (−0.9 V), and 20% (−2.25 V) as determined by the calibration curve. Cells were cyclically stretched for 30 min, followed by 30 min of rest, during which 2 μm z-stacks (0.5 μm steps) of nuclei were acquired. During the rest period, cells experienced no stretch but a constant magnetic field using the offset Arduino input voltage (0.8 V) that keeps the piston suspended at 0% stretch. For acquisition, the cyclic stretch routine was paused for 1 min to allow for a steady imaging plane and fine readjustments in z-position due to water evaporation. Unstretched control cells (0%) were seeded into stretch chambers but kept stationary on the microscope without any magnetic field applied. Unstretched magnetic control cells (MAG) were placed stationary inside the coil without the piston, and a magnetic field corresponding to a 20% sinusoidal stretch routine was applied.
A custom MATLAB code was used to track nuclear outlines via H2b-eGFP and to generate H2b intensity histograms during an image series, from which changes in nuclear area, H2b skewness, and H2b kurtosis were calculated.

[2] = test system: mouse embryonic skin fibroblasts (MSFs); assay: Perinuclear F-actin and γH2a.x staining after cyclic stretch routines; type: cell-based; conditions: BAPTA 50 μM, KN-62 10 μM, cytochalasin D 2 μM
Procedure: as §1
MSFs were fixed in 4% ice-cold paraformaldehyde (PFA) for 10 min, permeabilized with 1% Triton-X100 in phosphate-buffered saline for 15, min and blocked with 10% NGS, 1% bovine serum albumin in 0.1% PBT (0.1% Tween-20 in phosphate-buffered saline) for 60 min. Primary incubation of Phospho-Histone H2A.X Ser139 (9718S; Cell Signaling Technology, Danvers, Mass.) was performed at 4° C. overnight in 0.1% PBT containing 1% bovine serum albumin at 1:400. Secondary incubation of goat anti-rabbit IgG-AF546 (Life Technologies) was performed in primary incubation buffer for 45 min at 22° C. at a dilution of 1:500. F-actin was counterstained with phalloidin-CF405 (Biotium, Fremont, Calif.) for 30 min at a dilution of 1:30. Staining was performed in containment wells. After staining, membranes were cut out of the containment well using a circular punch and mounted cell-side up onto #1.0 glass slides with ProLong Diamond Antifade Mountant (Life Technologies). Image stacks (5 μm, 1 μm step) of multiple nuclei in a 318×318 μm area were acquired on a Nikon MR confocal microscope using a 40× oil immersion objective (0.31 μm/pixel). A custom MATLAB code was used to track nuclear outlines via H2b-eGFP and to quantify perinuclear F-actin intensities and γH2a.x foci in projected image stacks. Only the projected F-actin within the nuclear outline (apical perinuclear F-actin) was counted in this analysis. To account for variations in staining and imaging (the same imaging settings were used), fluorescence channels were histogram normalized. Perinuclear F-actin intensities were calculated as the sum of normalized phalloidin intensities within a nuclear border. DNA damage foci were determined by detecting 2D peaks in the normalized γH2a.x channel using the MATLAB script FastPeakFind (v. 1.7).

[3] = 30 min 5% cyclic strain, 1 Hz, vs NT/VH cells (area increases)
[4] = 30 min 5% cyclic strain, 1 Hz, vs NT/VH cells (condensation decreases)
[5] = 30 min 20% cyclic strain, 1 Hz, vs NT/VH cells (area decreases)
[6] = 30 min 20% cyclic strain, 1 Hz, vs NT/VH cells (condensation increases)
[7] = static magnetic-field-only routine (MAG), no stretch
[8] = after 30 min 5% cyclic stretch, vs NT or VH control cells
[9] = after 30 min 20% cyclic stretch, vs NT or VH control cells
[10] = 20% cyclic strain 30 min, Hoechst-stained vs unstained (H2b) nuclei

| SMILES | change in nuclear area [1, 3] | chromatin condensation (H2b histogram kurtosis and skewness) [1, 4] | change in nuclear area [1, 5] | change in nuclear area ([1]; 30 min 20% cyclic strain, 1 Hz, vs NT/VH cells (area decreases), listed as BP) | chromatin condensation (H2b histogram kurtosis and skewness) [1, 6] | chromatin condensation (H2b histogram kurtosis and skewness) ([1]; 30 min 20% cyclic strain, 1 Hz, vs NT/VH cells (condensation increases), listed as BP) | change in nuclear area [1, 7] | chromatin condensation (H2b histogram kurtosis and skewness) [1, 7] | number of γH2a.x foci per nucleus (DNA damage, double-strand breaks) [2, 8] | perinuclear F-actin intensities ([2]; after 30 min 5% cyclic stretch, vs NT or VH control cells, listed as BP) | number of γH2a.x foci per nucleus (DNA damage, double-strand breaks) [2, 9] | number of γH2a.x foci per nucleus (DNA damage, double-strand breaks) ([2]; static magnetic-field-only controls (MAG), listed as BP) | change in nuclear area during stretch [1, 10] | chromatin condensation (histogram kurtosis and skewness) during stretch [1, 10] | change in nuclear area during rest ([1]; 30 min rest after 20% cyclic strain, Hoechst-stained vs unstained (H2b) nuclei) | change in nuclear area ([1]; 30 min 20% cyclic strain, 1 Hz, vs NT/VH cells (area decreases), listed as KN) | chromatin condensation (H2b histogram kurtosis and skewness) ([1]; 30 min 20% cyclic strain, 1 Hz, vs NT/VH cells (condensation increases), listed as KN) | perinuclear F-actin intensities ([2]; after 30 min 5% cyclic stretch, vs NT or VH control cells, listed as KN) | number of γH2a.x foci per nucleus (DNA damage, double-strand breaks) ([2]; static magnetic-field-only controls (MAG), listed as KN) |
| --- | --- | --- | --- | --- | --- | --- | --- | --- | --- | --- | --- | --- | --- | --- | --- | --- | --- | --- | --- |
| O=C(O)CN(CC(=O)O)c1ccccc1OCCOc1ccccc1N(CC(=O)O)CC(=O)O [BAPTA] | abrogated the increase in nuclear area | abrogated the increase in nuclear area and decrease in chromatin condensation | only minorly effected | had no effect | only minorly effected | had no effect | interfered with the slight decrease in nuclear area | interfered with the slight decrease in nuclear area and increase in chromatin condensation | showed no difference | abrogated increases; also recorded: abrogated the increase | showed no difference | increased DNA damage |  |  |  |  |  |  |  |
| CCOc1ccc(-c2nc3ccc(-c4nc5ccc(N6CCN(C)CC6)cc5[nH]4)cc3[nH]2)cc1 [Hoechst, Hoechst 33342] |  |  |  |  |  |  |  |  |  |  |  |  | reduction in nuclear area similar to unstained nuclei | reduced chromatin condensation; also recorded: Reduced chromatin compaction | no regain in nuclear areas; also recorded: no recovery; also recorded: no relaxation |  |  |  |  |
| CN([C@@H](Cc1ccc(OS(=O)(=O)c2cccc3cnccc23)cc1)C(=O)N1CCN(c2ccccc2)CC1)S(=O)(=O)c1cccc2cnccc12 [KN-62] | abrogated the increase in nuclear area | abrogated the increase in nuclear area and decrease in chromatin condensation | only minorly effected |  | only minorly effected |  | interfered with the slight decrease in nuclear area | interfered with the slight decrease in nuclear area and increase in chromatin condensation | showed no difference |  | showed no difference |  |  |  |  | had no effect | had no effect | abrogated increases; also recorded: abrogated the increase | increased DNA damage |
